# Assays:
# [1] = target: T1, human 5-HT2A (h5-HT2A) receptor (Homo sapiens, UniProt P28223); test: FLIPR assay: human 5-HT2A (agonist mode); assay type: cell-based; conditions: for RFU@10 μM: @10 μM (head), footnote: curve fitting with activation (%) @ 10 mM with RFU, RFU=Fmax−Fmin; for EC50: FLIPR calcium, agonist mode, HTR2A&Gα15-HEK293 cells, ND: not detected
# T1 construct: expressed in transfected cells; host or cells: HEK293 (HTR2A&Ga15-HEK293, tetracycline-induced)
# Method: Assessment of the effect of exemplary compounds of Formula I targeting on human 5-HT2A (h5-HT2A) receptor under agonist mode.
# HTR2A&Ga15-HEK293 cells were cultured in DMEM medium containing 10% dialyzed FBS and 1x penicillin-streptomycin, 100 μg/mL Hygromycin B and 300 μg/mL G418. The cells were passaged about three times a week, maintained between ~30% to ~90% confluence.
# • 1. The cell culture medium (DMEM medium containing 10% dialyzed FBS and 1× penicillin-streptomycin, 100 μg/mL Hygromycin B and 300 μg/mL G418), TrypLE™ Express and DPBS to R.T. was warmed in advance. • 2. For induction, 1 μg/ml tetracycline (final concentration) was added to cell culture medium and incubated for 48 hours prior to seeding cells into plate at 37° C., 5% (v/v) CO2. The cell culture medium was removed from flask. Cells were washed with DPBS. • 3. 2 mL TrypLE™ Express was added to the flask, mixed well by gentle shaking and cells were incubated at 37° C. for a few minutes. • The cells were checked for morphological change under microscope, the digestion was stopped by adding 4 mL cell culture medium to the flask when most of cells turned to round. • 5. The cell suspension was transferred into a 15 mL centrifuge tube, and then centrifuged at 1,200 rpm for 5 minutes. • 6. The supernatant was removed. The cell pellet was resuspended with 2 mL cell culture medium. • 7. The cell density was counted using cell counter. Only cells with >85% viability were used for the assay. • 8. Cells were diluted to 6.67×10^5/mL with cell culture medium. • 9. 30 μL/well cell suspensions added into a 384-well cell plate (The cell density was 20,000 cells/well). • 10. The cell plate was incubated overnight at 37° C., 5% (v/v) CO2. 2.3 Cell handling • 1. On the day of experiments, culture medium was removed from the cell plate. • 2. 10 μL of assay buffer (20 mM HEPES, in 1×HBSS, pH 7.4) was added to each well of the cell plate. • 3. 2×dye solution was prepared following the manual of the FLIPR® Calcium 6 Assay Kit: • i. The dye was diluted with assay buffer. • ii. Probenecid was added to the final concentration of 5 mM. • iii. Vortexed vigorously for 1-2 minutes. • 4. 10 μL of 2× dye solution was added to each well of the cell plate • 5. The cell plate was placed on plate shaker, followed by shaking at 600 rpm for 2 minutes. • 6. The plate was incubated at 37° C. for 2 hours followed by an additional 15-minute incubation at 25° C. 2.4 Prepare 3×compound • 1. Serotonin HCl was prepared to the concentration of 10 mM with DMSO. • 2. The test compounds were prepared to the concentration of 10 mM with DMSO. • 3. The compounds were added to a 384-well compound source plate. • 4. 3-folds serial dilutions were performed with DMSO. • 5. 90 nL/well of serial diluted compounds was transferred from source plate to a 384-well compound plate by using an Echo. • 6. 30 μL/well of assay buffer (20 mM HEPES in 1x HBSS, pH 7.4) was added to the compound plate. • 7. The plate was mixed on-plate shaker for 2 minutes.
# • 1. After the cells were incubated with dye solution, the cell plate, compound plate containing 3×compounds and FLIPR tips were placed into FLIPR. • 2. 10 μL of 3×compounds transferred from the compound plate to the cell plate by FLIPR. • 3. The plate was read for 160 sec with 1 sec interval and the data of agonist mode was obtained.
# • 1. The normalized fluorescence reading (RFU) was calculated as shown below, wherein Fmax and Fmin stand for maximum and minimum of calcium signal during defined time window:
# RFU=Fmax−Fmin • 2. EC50 by fitting RFU against log of compound concentrations with Hill equation was calculated using XLfit.
# The following procedure can also be followed: • 1. Cells are cultured in cell culture medium (DMEM containing 10% FBS, 1× penicillin-streptomycin 300 μg/ml G418 and 100 μg/ml hygromycin B) at 37° C., 5% (v/V) CO2. • 2. One day before the assays, the cells are detached using TrypLE™ Express and cells are counted using cell counter.
# Plasma stability, rat = assay type: in vitro ADME; conditions: 37° C.; for remaining at 0.5 h: 30 min, read-out: Remaining Percentage (%), 30 min; for remaining at 1 h: 60 min, read-out: Remaining Percentage (%), 60 min; for half-life: >255.85 if remaining at 60 min greater than 85%
# Method: (§1) • a. […] The final concentration of organic solvents was 0.5%. The assay was performed in duplicated. • b.
# (§2) All calculations were carried out using Microsoft Excel.
# Plasma stability, mouse = assay type: in vitro ADME; conditions: 37° C.; for remaining at 0.5 h: 30 min, read-out: Remaining Percentage (%), 30 min; for remaining at 1 h: 60 min, read-out: Remaining Percentage (%), 60 min; for half-life: >255.85 if remaining at 60 min greater than 85%
# Method: as §1, §2
# Plasma stability, human = assay type: in vitro ADME; conditions: 37° C.; for remaining at 0.5 h: 30 min, read-out: Remaining Percentage (%), 30 min; for remaining at 1 h: 60 min, read-out: Remaining Percentage (%), 60 min; for half-life: >255.85 if remaining at 60 min greater than 85%
# Method: as §1, §2
# T1 sequence (P28223 whole entry): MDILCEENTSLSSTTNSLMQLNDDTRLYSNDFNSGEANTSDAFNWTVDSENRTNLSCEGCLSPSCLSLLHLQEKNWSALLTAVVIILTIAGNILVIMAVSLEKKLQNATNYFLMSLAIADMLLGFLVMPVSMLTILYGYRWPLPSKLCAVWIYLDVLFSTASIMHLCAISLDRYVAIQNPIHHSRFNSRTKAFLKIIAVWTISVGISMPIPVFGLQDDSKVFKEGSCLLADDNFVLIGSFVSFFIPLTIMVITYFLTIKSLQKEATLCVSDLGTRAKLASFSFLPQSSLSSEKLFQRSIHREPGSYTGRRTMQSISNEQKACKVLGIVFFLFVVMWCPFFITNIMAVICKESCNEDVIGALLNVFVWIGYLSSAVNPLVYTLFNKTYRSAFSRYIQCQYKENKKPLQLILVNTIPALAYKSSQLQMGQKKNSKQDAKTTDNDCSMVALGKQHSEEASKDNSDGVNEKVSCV
SMILES,RFU@10 μM [1],EC50 [1],"Remaining Percentage (%), 0 min (Plasma stability, rat)","remaining at 0.5 h (Plasma stability, rat)","remaining at 1 h (Plasma stability, rat)","half-life (Plasma stability, rat)","Remaining Percentage (%), 0 min (Plasma stability, mouse)","remaining at 0.5 h (Plasma stability, mouse)","remaining at 1 h (Plasma stability, mouse)","half-life (Plasma stability, mouse)","Remaining Percentage (%), 0 min (Plasma stability, human)","remaining at 0.5 h (Plasma stability, human)","remaining at 1 h (Plasma stability, human)","half-life (Plasma stability, human)"
"[2H]C([2H])([2H])N1CCC[C@@H]1C([2H])([2H])N1CCc2ccccc21 [(R)-I-1, (R)-1-((1-(Methyl-d3)pyrrolidin-2-yl)methyl-d2) indoline]",386 RFU,3.55 µM,–,–,–,–,–,–,–,–,–,–,–,–
"[2H]C([2H])([2H])Oc1ccc2c(c1)N(C([2H])([2H])[C@H]1CCCN1C([2H])([2H])[2H])CC2 [(R)-I-28, (R)-6-(Methoxy-d3)-1-((1-(methyl-d3)pyrrolidin-2-yl)methyl-d2) indoline]",3744 RFU,1.09 µM,100.00%,97.9%,94.7%,> 4.26 h,100.00%,99.2%,93.3%,> 4.26 h,100.00%,95.1%,94.2%,> 4.26 h
"COc1cc2c(cc1OC)N(C[C@H]1CCCN1C)CC2 [(R)-I-34, (R)-5,6-dimethoxy-1-((1-methylpyrrolidin-2-yl)methyl) indoline]",268 RFU,–,–,–,–,–,–,–,–,–,–,–,–,–
"COc1cccc2c1N(C[C@H]1CCCN1C)CC2 [(R)-I-46, (R)-7-Methoxy-1-((1-methylpyrrolidin-2-yl)methyl) indoline]",487 RFU,1.14 µM,100.00%,91.3%,86.7%,> 4.26 h,100.00%,103%,92.4%,> 4.26 h,100.00%,104%,93%,> 4.26 h
"COc1cccc2c1CCN2C[C@H]1CCCN1C [(R)-I-47, (R)-4-Methoxy-1-((1-methylpyrrolidin-2-yl)methyl) indoline]",174 RFU,–,–,–,–,–,–,–,–,–,–,–,–,–
"[2H]C([2H])([2H])N1CCC[C@@H]1C([2H])([2H])N1CCc2ccc(OC)cc21 [(R)-I-57, (R)-6-Methoxy-1-((1-(methyl-d3)pyrrolidin-2-yl)methyl-d2) indoline]",749 RFU,0.422 µM,100.00%,92.5%,89.7%,> 4.26 h,100.00%,105%,100%,> 4.26 h,100.00%,108%,113%,> 4.26 h
"COc1ccc2c(c1)N(C[C@H]1CCCN1C)CC2 [(R)-I-58, (R)-6-Methoxy-1-((1-methylpyrrolidin-2-yl)methyl) indoline]",796 RFU,0.322 µM,100.00%,111%,110%,> 4.26 h,100.00%,97.4%,105%,> 4.26 h,100.00%,108%,98.5%,> 4.26 h
"COc1ccc2c(c1)N(C[C@H]1CCCN1)CC2 [(R)-I-59, (R)-6-Methoxy-1-(pyrrolidin-2-ylmethyl) indoline]",801 RFU,1.21 µM,–,–,–,–,–,–,–,–,–,–,–,–
"[2H]C([2H])([2H])N(CCN1CCc2ccc(OC)cc21)C([2H])([2H])[2H] [Compound I-70, 2-(6-Methoxyindolin-1-yl)-N, N-bis(methyl-d3) ethan-1-amine]",303 RFU,–,–,–,–,–,–,–,–,–,–,–,–,–
"[2H]C([2H])([2H])N(CCN1CCc2ccccc21)C([2H])([2H])[2H] [Compound I-71, 2-(Indolin-1-yl)-N,N-bis(methyl-d3) ethan-1-amine]",280 RFU,–,–,–,–,–,–,–,–,–,–,–,–,–

# — US20260356814A1, “INDOLINE DERIVATIVES AS SEROTONERGIC AGENTS USEFUL FOR THE TREATMENT OF DISORDERS RELATED THERETO” (MINDSET PHARMA INC., priority 2022, published 2026)
